This passage reports MIC and Activity results from ChEMBL document CHEMBL1938310, “Discovery of novel antitubercular 1,5-dimethyl-2-phenyl-4-([5-(arylamino)-1,3,4-oxadiazol-2-yl]methylamino)-1,2-dihydro-3H-pyrazol-3-one analogues” (Bioorg Med Chem Lett, 2012).

In series [1] the test system is Mycobacterium tuberculosis. As to the kind of experiment: Antimycobacterial activity against Mycobacterium tuberculosis H37Rv by two fold agar dilution method. Format: functional. (Agar dilution tests growth on a series of plates holding different concentrations.)
Series [2] concerns Vero. As to the kind of experiment: Cytotoxicity against African green monkey Vero cells at 62.5 ug/ml after 72 hrs by MTT assay. Format: cell-based. As to conditions: chlorocebus sabaeus.

Converted amounts (≈) assume the structure as drawn.

By MIC is commonly meant the smallest concentration in the dilution series that meets the test's criterion for growth inhibition. `Cc1c(NCc2nnc(Nc3ccc(F)c(Cl)c3)o2)c(=O)n(-c2ccccc2)n1C` displayed a minimal inhibitory concentration (MIC) in series [1] of 6.25 µg/mL (≈ 14.6 µM). Also, in series [2], the Activity entry is “Non-toxic”.

`Cc1c(NCc2nnc(Nc3ccc(F)cc3)o2)c(=O)n(-c2ccccc2)n1C` registered a minimal inhibitory concentration (MIC) in series [1] of 0.78 µg/mL (≈ 1.98 µM). Also, the Activity result in series [2] is recorded as “Non-toxic”.

`Cc1c(NCc2nnc(Nc3ccc(Cl)cc3)o2)c(=O)n(-c2ccccc2)n1C` displayed an MIC in series [1] of 6.25 µg/mL (≈ 15.2 µM). For the same compound, the Activity result in series [2] is “Non-toxic”.

In series [1], `Cc1c(NCc2nnc(Nc3ccc(Br)cc3)o2)c(=O)n(-c2ccccc2)n1C` returned a minimum inhibitory concentration (MIC) of 6.25 µg/mL (≈ 13.7 µM). Moreover, the Activity entry in series [2] was “Non-toxic”.

`Cc1c(NCc2nnc(Nc3ccccc3Cl)o2)c(=O)n(-c2ccccc2)n1C` came in with a minimum inhibitory concentration (MIC) in series [1] of 10 µg/mL (≈ 24.3 µM).

For `Cc1c(Cl)cccc1Nc1nnc(CNc2c(C)n(C)n(-c3ccccc3)c2=O)o1`, in series [1], inhibition of growth (MIC) required 10 µg/mL (≈ 23.5 µM).

In series [1], `Cc1c(NCc2nnc(Nc3ccc([N+](=O)[O-])cc3)o2)c(=O)n(-c2ccccc2)n1C` had a minimum inhibitory concentration (MIC) of 3.12 µg/mL (≈ 7.4 µM). Also, the Activity result in series [2] is “Non-toxic”.

The compound `Cc1ccc(Nc2nnc(CNc3c(C)n(C)n(-c4ccccc4)c3=O)o2)cc1` displayed an MIC in series [1] of 12.5 µg/mL (≈ 32 µM).

As for `COc1ccc(Nc2nnc(CNc3c(C)n(C)n(-c4ccccc4)c3=O)o2)cc1`, in series [1], the MIC was 12.5 µg/mL (≈ 30.8 µM).

Compound `CCOc1ccc(Nc2nnc(CNc3c(C)n(C)n(-c4ccccc4)c3=O)o2)cc1` gave an MIC in series [1] of more than 12.5 µg/mL.

Consider `Cc1ccc(Nc2nnc(CNc3c(C)n(C)n(-c4ccccc4)c3=O)o2)c(C)c1`, for which, in series [1], it took 12.5 µg/mL (≈ 30.9 µM) to inhibit growth (MIC).

With `Cc1cccc(C)c1Nc1nnc(CNc2c(C)n(C)n(-c3ccccc3)c2=O)o1`, in series [1], the minimal inhibitory concentration (MIC) turned out to be 10 µg/mL (≈ 24.7 µM).

For the compound `COc1ccc(Nc2nnc(CNc3c(C)n(C)n(-c4ccccc4)c3=O)o2)c(OC)c1`, the MIC in series [1] is more than 12.5 µg/mL.

In turn, `Cc1c(NCc2nnc(Nc3ccc(O)cc3)o2)c(=O)n(-c2ccccc2)n1C` yielded an MIC in series [1] of 10 µg/mL (≈ 25.5 µM).

For `Cc1c(NCc2nnc(Nc3ccc(S(N)(=O)=O)cc3)o2)c(=O)n(-c2ccccc2)n1C`, the minimal inhibitory concentration (MIC) in series [1] is 3.12 µg/mL (≈ 6.85 µM). For the same compound, the Activity entry in series [2] was “Non-toxic”.

Turning to `Cc1c(NCc2nnc(Nc3ccccc3)o2)c(=O)n(-c2ccccc2)n1C`, the minimal inhibitory concentration (MIC) in series [1] was found to be 10 µg/mL (≈ 26.6 µM).

In series [1], `NNC(=O)c1ccncc1` [ISONIAZID] had a minimum inhibitory concentration (MIC) of 0.78 µg/mL (≈ 5.69 µM).
